Holding throughout (type): in vivo
The subject of assay [1] is PBD6-ARA9 tobacco line (overexpressing A. thaliana HPPD). Briefly: Tolerance to HPPD inhibitors: sowing on increasing concentrations of DKN, parental line. The text has this: (§1) The tolerance of the transformed plants is studied by sowing on a soil treated with diketonitrile (DKN).
(§2) 13 ARA9-PDH lines and the PBD6-ARA9 line that was used as starting material for the transformation were sown on increasing concentrations of DKN:5, 10 and 32 ppm.

In assay [2] the test system is ARA9-PDH tobacco lines (overexpressing PDH and HPPD). Briefly: Tolerance to HPPD inhibitors: sowing on increasing concentrations of DKN, doubly transformed lines.
Source text: as §1, §2

The next assay concerns ARA9-PDH18 tobacco line. The assay can be described thus: Tolerance to sulcotrione and to mesotrione, ARA9-PDH18 line. On the procedure: as §2
The same experiment was carried out with the HPPD inhibitors sulcotrione and mesotrione.

In assay [3] the test system is wild-type tobacco line of the Petit Havana type. Briefly: Tolerance to sulcotrione and to mesotrione, wild-type line.

For the molecule `CS(=O)(=O)c1cc(C(F)(F)F)ccc1C(=O)C(C#N)C(=O)C1CC1` (centres unmarked) [DKN], the “response of line sown on DKN” value in assay [1] (5 ppm DKN) is on record as “resistant”; in assay [1] (10 ppm DKN), “completely inhibited”; in assay [1] (32 ppm DKN) it was “completely inhibited”; in assay [2] (10 ppm DKN, ARA9-PDH4 line), “inhibited”. The “response of lines sown on DKN” value in assay [2] (5 ppm DKN, all 13 ARA9-PDH lines) was “resistant”; in assay [2] (10 ppm DKN, all ARA9-PDH lines except ARA9-PDH4), “resist well”; in assay [2] (32 ppm DKN, ARA9-PDH lines that were resistant to 10 ppm), “resistant and grow normally”.
As to `CS(=O)(=O)c1ccc(C(=O)C2C(=O)CCCC2=O)c([N+](=O)[O-])c1` [mesotrione], in the assay with ARA9-PDH18 tobacco line, the “concentration of HPPD inhibitor the line is tolerant to” value is 3 µM. Also, the “concentration of HPPD inhibitor the line is sensitive to” value in assay [3] was 0.375 µM.
The matching figures for `CS(=O)(=O)c1ccc(C(=O)C2C(=O)CCCC2=O)c(Cl)c1` [sulcotrione]: 6 µM and 0.375 µM.
